Results taken from patent US11878986B2, “Poly heterocyclic conjugates and their pharmaceutical uses” (National Health Research Institutes, priority 2020, dated 2024).

Tested on: human pancreatic cancer cells (MIA PaCa-2)
Experiment: Tumor growth inhibition in subcutaneous xenograft model, MIA PaCa-2
Format: in vivo, mouse
Conditions: s.c. xenograft in athymic nude mice; i.v. 1-5 mg/kg, once/week or twice/week for 1-3 weeks; vs vehicle control, p<0.05; FIG. 1
Method: The efficacy of compounds 2 and 11 in inhibiting the growth of human pancreatic cancer cells (MIA PaCa-2) and the efficacy of compounds 1-4, 23, 25, and 26 in inhibiting the growth of human triple-negative breast cancer cells (HCC1806) were assessed as follows.
Male and female athymic NU-Fox1^nu nude mice (BioLASCO, Taiwan) at age 4-5 weeks were housed in sterilized cages equipped with an air filter and sterile bedding materials at the Laboratory Animal Center of the National Health Research Institutes (NHRI), which is an AAALAC International accredited facility. All the mice were fed with sterilized water and chow ad libitum under 12-hr light/12-hr dark cycle throughout the study. […]
The MIA PaCa-2 and HCC1806 cells were suspended in phenol-red-free culture medium/Matrigel™ (1/1) and implanted subcutaneously (s.c.) into the left flank of the nude mice (1×10^6 cells/flank) via a 1 mL syringe. Tumor dimensions were measured twice a week using a digital caliper and the tumor volume (mm^3) was calculated based on the formula, i.e., volume=(length×width^2)/2.
Tumor-bearing mice were randomized (n=7-8 per group) when the average tumor volume reached approximately 200 mm^3. […] Tumor size and body weight of each animal were measured twice a week. Data was expressed as the mean or mean±standard error of the mean (SEM). […]

SMILES | inhibition of the growth of MIA PaCa-2 (tumor volume)
CCCCCC(=O)Nc1cccc(CN(Cc2cc(CN(Cc3ccccn3)Cc3cccc(NC(=O)CCCCC)n3)cc(OCCCCN(Cc3ccc(-c4ccccc4)cc3)C(=O)COCCOCCOCC(=O)NCc3ccc(CNC(=O)CCSSCCC(=O)N(C)[C@H](C)C(=O)O[C@@H]4CC(=O)N(C)c5cc(cc(OC)c5Cl)C/C(C)=C/C=C/[C@H](OC)[C@]5(O)C[C@@H](OC(=O)N5)[C@H](C)[C@H]5O[C@]54C)cc3)c2)Cc2ccccn2)n1 [Compound 2] | significantly inhibited the growth
CCCCCC(=O)Nc1cccc(CN(Cc2cc(CN(Cc3ccccn3)Cc3cccc(NC(=O)CCCCC)n3)cc(OCCCCNC(=O)COCCOCCOCC(=O)NCc3ccc(CNC(=O)CCSSCCC(=O)N(C)[C@H](C)C(=O)O[C@@H]4CC(=O)N(C)c5cc(cc(OC)c5Cl)C/C(C)=C/C=C/[C@H](OC)[C@]5(O)C[C@H](OC(=O)N5)[C@H](C)C5O[C@@]54C)cc3)c2)Cc2ccccn2)n1 (some centres unmarked) [Compound 11] | significantly inhibited the growth
